Test results from patent US20250145635A1, “COMPOUND CONTAINING BIS(AZANYLYLIDENE) SULFONYL STRUCTURE AND USE THEREOF IN MEDICINE” (SCINNOHUB PHARMACEUTICAL CO., LTD., priority 2021, published 2025).

target: recombinant human PKR enzyme (Homo sapiens (Human), UniProt P30613); experiment: Pyruvate kinase (PKR) activity experiment; type: biochemical; details: activation of recombinant human PKR enzyme
Description: • 1). A recombinant human PKR enzyme solution was formulated at a concentration of 60 ng/well (a 20 μL reaction system), and 5 μL of the solution was added into each well of a black transparent bottom 384-well plate. • 2). Compound solutions were formulated at different concentrations, with the final concentrations of 1000/300/100 nM (containing 1% DMSO). Each 5 μL of the compound solution was added into the plate in item 3.1 and mixed well. The plate was incubated at room temperature for 10 min. • 3). A reaction system was formulated according to the instructions of a kit (as shown in the table below), and 10 μL of the reaction system was added into each well of the 384-well plate, and mixed uniformly with the solution in item 3.2.
• 4). The 384-well plate was placed on a microplate reader to detect the fluorescence value at 540/590 nm, where the value was read every 2 minutes and the detection was conducted continuously for 1 hour. • 5). The Slope value within the detection time was calculated, and the 0.1% DMSO well was used as a control well to calculate a compound activation rate.
[formula] • 6). Fitting dose-effect curve
With the log value of the compound concentration as the X axis and the percentage activation rate as the Y axis, a dose-effect curve was fitted with the log(agonist) vs. response-variable slope of the analysis software GraphPad Prism 5, and the AC50 value of the activity of each compound against PKR was obtained.

Chain of recombinant human PKR enzyme (P30613 whole entry): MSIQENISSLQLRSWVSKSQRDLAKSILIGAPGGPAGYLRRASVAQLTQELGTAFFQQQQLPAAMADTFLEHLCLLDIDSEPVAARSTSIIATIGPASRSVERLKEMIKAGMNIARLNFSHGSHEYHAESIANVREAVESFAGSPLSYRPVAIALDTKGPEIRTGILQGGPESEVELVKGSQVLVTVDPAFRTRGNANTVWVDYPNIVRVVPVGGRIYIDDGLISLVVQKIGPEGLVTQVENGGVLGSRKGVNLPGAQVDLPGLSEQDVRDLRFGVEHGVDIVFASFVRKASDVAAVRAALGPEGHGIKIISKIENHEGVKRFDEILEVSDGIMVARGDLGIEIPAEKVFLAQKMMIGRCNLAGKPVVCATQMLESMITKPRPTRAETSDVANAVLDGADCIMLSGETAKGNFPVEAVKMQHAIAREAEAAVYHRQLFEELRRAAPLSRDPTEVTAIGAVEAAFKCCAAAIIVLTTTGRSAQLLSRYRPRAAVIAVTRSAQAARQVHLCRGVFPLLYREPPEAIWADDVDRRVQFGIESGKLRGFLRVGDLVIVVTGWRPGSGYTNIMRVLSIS

AC50 | SMILES
101 to 300 nM | O=C([C@H](CO)c1ccccc1)N1CC(=C2CN(S(=O)(=O)c3ccc(OC(F)(F)F)cc3)C2)C1 [Compound 9, (S)-3-hydroxy-2-phenyl-1-(1′-((4-(trifluoromethoxy)phenyl)sulfonyl)-1′,4′-dihydro-2H,2′H-[3,3′-diazetidinylidene]-1(4H)-yl)propan-1-one]
< 100 nM | O=C([C@H](CO)c1ccccc1)N1CC(=C2CN(S(=O)(=O)c3ccc4c(c3)NCCO4)C2)C1 [Compound 12, (S)-1-(1′-((3,4-dihydro-2H-benzo[b][1,4]oxazin-6-yl)sulfonyl)-1′,4′-dihydro-2H,2′H-[3,3′-diazetidinylidene]-1(4H)-yl)-3-hydroxy-2-phenylpropan-1-one]
101 to 300 nM | O=C(C(CO)c1ccc(F)cc1)N1CC(=C2CN(S(=O)(=O)c3ccc(OC(F)F)cc3)C2)C1 (stereo not shown) [Compound 16, 1-(1′-((4-(difluoromethoxy)phenyl)sulfonyl)-1′,4′-dihydro-2H,2′H-[3,3′-diazetidinylidene]-1(4H)-yl)-2-(4-fluorophenyl)-3-hydroxypropan-1-one]
101 to 300 nM | O=C([C@H](CO)c1ccccc1)N1CC(=C2CN(S(=O)(=O)c3cc(F)c4c(c3)OCCO4)C2)C1 [Compound 20, (S)-1-(1′-((8-fluoro-2,3-dihydrobenzo[b][1,4]dioxin-6-yl)sulfonyl)-1′,4′-dihydro-2H,2′H-[3,3′-diazetidinylidene]-1(4H)-yl)-3-hydroxy-2-phenylpropan-1-one]
< 100 nM | O=C([C@H](CO)c1ccc(F)cc1)N1CC(=C2CN(S(=O)(=O)c3ccc4ncsc4c3)C2)C1 [Compound 25, (S)-1-(1′-(benzo[d]thiazol-6-ylsulfonyl)-1′,4′-dihydro-2H,2′H-[3,3′-diazetidinylidene]-1(4H)-yl)-2-(4-fluorophenyl)-3-hydroxypropan-1-one]
300 to 1000 nM | O=C([C@H](CO)c1ccccc1)N1CC(=C2CN(S(=O)(=O)c3ccc(-c4ncco4)c(F)c3)C2)C1 [Compound 27, (S)-1-(1′-((3-fluoro-4-(oxazol-2-yl)phenyl)sulfonyl)-1′,4′-dihydro-2H,2′H-[3,3′-diazetidinylidene]-1(4H)-yl)-3-hydroxy-2-phenylpropan-1-one]
< 100 nM | O=C([C@H](CO)c1ccc(F)cc1)N1CC(=C2CN(S(=O)(=O)c3ccc4c(c3)OCCO4)C2)C1 [Compound 30, (S)-1-(1′-((2,3-dihydrobenzo[b][1,4]dioxin-6-yl)sulfonyl)-1′,4′-dihydro-2H,2′H—[3,3′-diazetidinylidene]-1(4H)-yl)-2-(4-fluorophenyl)-3-hydroxypropan-1-one]
300 to 1000 nM | Cn1cc(-c2ccc(C(CO)C(=O)N3CC(=C4CN(S(=O)(=O)c5ccc6ncsc6c5)C4)C3)cc2)cn1 (stereo not shown) [Compound 34, 1-(1′-(benzo[d]thiazol-6-ylsulfonyl)-1′,4′-dihydro-2H,2′H-[3,3′-diazetidinylidene]-1(4H)-yl)-3-hydroxy-2-(4-(1-methyl-1H-pyrazol-4-yl)phenyl)propan-1-one]
< 100 nM | Cc1nc2ccc(S(=O)(=O)N3CC(=C4CN(C(=O)[C@H](CO)c5ccccc5)C4)C3)cc2s1 [Compound 35, (S)-3-hydroxy-1-(1′-((2-methylbenzo[d]thiazol-6-yl)sulfonyl)-1′,4′-dihydro-2H,2′H-[3,3′-diazetidinylidene]-1(4H)-yl)-2-phenylpropan-1-one]

Continued, compound first:

SMILES | AC50
O=C([C@H](CO)c1ccccc1)N1CC(=C2CN(S(=O)(=O)c3ccc(OC(F)F)cc3)C2)C1 [Compound 7, (S)-1-(1′-((4-(difluoromethoxy)phenyl)sulfonyl)-1′,4′-dihydro-2H,2′H-[3,3′-diazetidinylidene]-1(4H)-yl)-3-hydroxy-2-phenylpropan-1-one] | 101 to 300 nM
O=C([C@H](CO)c1ccccc1)N1CC(=C2CN(S(=O)(=O)c3ccc(F)cc3)C2)C1 [Compound 10] | 101 to 300 nM
O=C([C@H](CO)c1ccccc1)N1CC(=C2CN(S(=O)(=O)c3ccc(OC(F)F)c(F)c3)C2)C1 [Compound 11] | 101 to 300 nM
O=C(C(O)c1ccc2c(c1)NCCO2)N1CC(=C2CN(S(=O)(=O)c3ccc(OC(F)F)cc3)C2)C1 (stereo not shown) [Compound 13, 1-(1′-((4-(difluoromethoxy)phenyl)sulfonyl)-1′,4′-dihydro-2H,2′H-[3,3′-diazetidinylidene]-1(4H)-yl)-2-(3,4-dihydro-2H-benzo[b][1,4]oxazin-6-yl)-2-hydroxyethan-1-one] | < 100 nM
CNCC(C(=O)N1CC(=C2CN(S(=O)(=O)c3ccc4c(c3)OCCO4)C2)C1)c1cccc(OC)c1 (stereo not shown) [Compound 15, 1-(1′-((2,3-dihydrobenzo[b][1,4]dioxin-6-yl)sulfonyl)-1′,4′-dihydro-2H,2′H-[3,3′-diazetidinylidene]-1(4H)-yl)-2-(3-methoxyphenyl)-3-(methylamino)propan-1-one] | 300 to 1000 nM
CC(C)(O)C(C(=O)N1CC(=C2CN(S(=O)(=O)c3ccc(OC(F)F)cc3)C2)C1)c1ccccc1 (stereo not shown) [Compound 17, 1-(1′-((4-(difluoromethoxy)phenyl)sulfonyl)-1′,4′-dihydro-2H,2′H-[3,3′-diazetidinylidene]-1(4H)-yl)-3-hydroxy-3-methyl-2-phenylbutan-1-one] | 300 to 1000 nM
NC(C(=O)N1CC(=C2CN(S(=O)(=O)c3ccc(OC(F)F)cc3)C2)C1)c1ccc(F)cc1 (stereo not shown) [Compound 22, 2-amino-1-(1′-((4-(difluoromethoxy)phenyl)sulfonyl)-1′,4′-dihydro-2H,2′H-[3,3′-diazetidinylidene]-1(4H)-yl)-2-(4-fluorophenyl)ethan-1-one] | 300 to 1000 nM
NC(C(=O)N1CC(=C2CN(S(=O)(=O)c3ccc(OC(F)F)cc3)C2)C1)c1cccc(C(F)(F)F)c1 (stereo not shown) [Compound 23, 2-amino-1-(1′-((4-(difluoromethoxy)phenyl)sulfonyl)-1′,4′-dihydro-2H,2′H-[3,3′-diazetidinylidene]-1(4H)-yl)-2-(3-(trifluoromethyl)phenyl)ethan-1-one] | 300 to 1000 nM
Cc1nc2c(C(O)C(=O)N3CC(=C4CN(S(=O)(=O)c5ccc(OC(F)F)cc5)C4)C3)cccc2s1 (stereo not shown) [Compound 24, 1-(1′-((4-(difluoromethoxy)phenyl)sulfonyl)-1′,4′-dihydro-2H,2′H-[3,3′-diazetidinylidene]-1(4H)-yl)-2-hydroxy-2-(2-methylbenzo[d]thiazol-4-yl)ethan-1-one] | 300 to 1000 nM
CNCC(C(=O)N1CC(=C2CN(S(=O)(=O)c3ccc4c(c3)OCCO4)C2)C1)c1ccc(F)c(Cl)c1OC (stereo not shown) [Compound 28] | 300 to 1000 nM
O=C([C@@H](CO)c1ccc(F)cc1)N1CC(=C2CN(S(=O)(=O)c3ccc4c(c3)OCCO4)C2)C1 [Compound 31, (R)-1-(1′-((2,3-dihydrobenzo[b][1,4]dioxin-6-yl)sulfonyl)-1′,4′-dihydro-2H,2′H-[3,3′-diazetidinylidene]-1(4H)-yl)-2-(4-fluorophenyl)-3-hydroxypropan-1-one] | 300 to 1000 nM
O=C(C(CO)c1ccc2ccccc2c1)N1CC(=C2CN(S(=O)(=O)c3ccc4ncsc4c3)C2)C1 (stereo not shown) [Compound 32, 1-(1′-(benzo[d]thiazol-6-ylsulfonyl)-1′,4′-dihydro-2H,2′H-[3,3′-diazetidinylidene]-1(4H)-yl)-3-hydroxy-2-(naphthalene-2-yl)propan-1-one] | < 100 nM
CN1CCN(c2cccc(C(CO)C(=O)N3CC(=C4CN(S(=O)(=O)c5ccc6ncsc6c5)C4)C3)c2)CC1 (stereo not shown) [Compound 33] | 300 to 1000 nM
